Patent publication US5376371A, “Compositions for treating fat deposits in humans” (Indena S.p.A., priority 1989, dated 1994)
pIC50: −log10 of the molar value.

target: phosphodiesterase; experiment: Phosphodiesterase inhibition, cyclic AMP substrate; type: biochemical; conditions: 1 μM substrate; read-out: I50 Cyclic AMP
Protocol: (§1) The determination of the phosphodiesterase activity was carried out according to the method of Beretz et al. (Experientia, 34,1054,1977). The method consists in measuring (3H) products resulting from incubation of (3H)-c-AMP with the phosphodiesterase preparation and with an excess of […]. An anion exchange resin was used in a batch process to remove the residual substrate. The inibition of PDE by flavonoids was studied in experiments in which the concentration of c-AMP was held constant at 1 μM.
(§2) Assays were performed with 1 μM substrate, I50 was calculated as described above.

| pIC50 | Compound |
| --- | --- |
| 6.19 | O=c1cc(-c2ccc(O)c(-c3c(O)cc(O)c4c(=O)cc(-c5ccc(O)cc5)oc34)c2)oc2cc(O)cc(O)c12 [Amentoflavone, amentoflavone] |
| 2.70 | O=C(O)c1cc(=O)c2c(OCC(O)COc3cccc4oc(C(=O)O)cc(=O)c34)cccc2o1 [Cromoglycate Na, reference compound] |
| 6.06 | ginkgonetine |

| Compound | pIC50 |
| --- | --- |
| COc1ccc(Cc2nccc3cc(OC)c(OC)cc23)cc1OC [Papaverine, reference compound] | 5.30 |

test system: phosphodiesterase; experiment: not given; conditions: stated as known; cited from earlier work

| Compound | inhibition of phosphodiesterase |
| --- | --- |
| O=c1cc(-c2ccc(O)c(-c3c(O)cc(O)c4c(=O)cc(-c5ccc(O)cc5)oc34)c2)oc2cc(O)cc(O)c12 [Amentoflavone, amentoflavone] | powerful inhibitor of phosphodiesterase |

target: phosphodiesterase; experiment: Phosphodiesterase inhibition, cyclic GMP substrate; type: biochemical; conditions: 1 μM substrate; read-out: I50 Cyclic GMP
Protocol: as §1, §2

| pIC50 | Compound |
| --- | --- |
| 6.24 | O=c1cc(-c2ccc(O)c(-c3c(O)cc(O)c4c(=O)cc(-c5ccc(O)cc5)oc34)c2)oc2cc(O)cc(O)c12 [Amentoflavone, amentoflavone] |
| 3.63 | O=C(O)c1cc(=O)c2c(OCC(O)COc3cccc4oc(C(=O)O)cc(=O)c34)cccc2o1 [Cromoglycate Na, reference compound] |
| 6.31 | ginkgonetine |

| Compound | pIC50 |
| --- | --- |
| COc1ccc(Cc2nccc3cc(OC)c(OC)cc23)cc1OC [Papaverine, reference compound] | 4.91 |
